Here are results for four compounds from paper PMC4186413, “Identification of metabolic pathways and enzyme systems involved in the in vitro human hepatic metabolism of dronedarone, a potent new oral antiarrhythmic drug” (Pharmacology Research & Perspectives, 2014).

For data set [1], the target named is T1, CYP2C8 (Homo sapiens, UniProt P10632).
T1 construct: purchased BD Gentest (Woburn, MA); host or cells: baculovirus-infected insect cells
Put plainly: Oxidation by recombinant human CYP2C8. Format: in vitro ADME. As to conditions: 100 pmol/mL, 5 μmol/L, 30 min, NADPH. The text has this: (§1) Recombinant human CYPs (Supersomes™; BD Gentes, Woburn, MA: CYP1A1, CYP1A2, CYP2A6, CYP2B6, CYP2C8, CYP2C9, CYP2C18, CYP2C19, CYP2D6, CYP2E1, CYP3A4 and CYP3A5), FMOs (Supersomes™: FMO1, FMO3, FMO5), MAOs (Supersomes™: MAO-A and MAO-B), and UGTs (Supersomes™: UGT1A1, UGT1A3, UGT1A4, UGT1A6, UGT1A7, UGT1A8, UGT1A9, UGT1A10, UGT2B4, UGT2B7, UGT2B15, and UGT2B17) expressed in baculovirus-infected insect cells and control microsomes from insect cells infected with wild-type baculovirus were all obtained from BD Gentest (Woburn, MA). […]
(§2) In human liver microsomes and recombinant isoforms, the percentage of metabolism was determined on the basis of unchanged drug disappearance, using the following equation [drawing 1] where UDt = 30 min represents the unchanged drug peak area after a 30-min incubation period and UDt = 0, the unchanged drug peak area at t = 0. […]
(§3) Figure 5 Contribution of individual CYPs, FMOs and MAOs to the oxidation of dronedarone and its metabolites. […] Unchanged drugs were quantified by LC/MS-MS relative to the synthetic references as described in Materials and Methods. Data are expressed as the percentage of oxidation.

On the set-up of data set [2]: method as in Touboul et al. [2003]; Wadhani et al. [2006]. As to conditions: 400-mg twice daily, ref Touboul et al. [2003]; Wadhani et al. [2006]; cited from earlier work.
The test system of data set [3] is CYP3A4. The settings on record: reversible inhibition, human liver microsomes, reported; cited from earlier work.
Data set [4] addresses T2, CYP2D6 (Homo sapiens, UniProt P10635).
T2 construct: purchased BD Gentest (Woburn, MA); host or cells: baculovirus-infected insect cells
The settings on record: reversible inhibition, human liver microsomes, reported; cited from earlier work.

The target in data set [5] is T3, MAO-A (Homo sapiens, UniProt P21397).
T3 construct: purchased BD Gentest (Woburn, MA); host or cells: baculovirus-infected insect cells
The data set is described as follows: Oxidation by recombinant human MAO-A. Format: in vitro ADME. As to conditions: 1 mg/mL, 5 μmol/L, 30 min, no cofactor.
From the text: as §1, §2, §3

Data set [6] deals with T4, MAO-B (Homo sapiens, UniProt P27338).
T4 construct: purchased BD Gentest (Woburn, MA); host or cells: baculovirus-infected insect cells
Put plainly: Oxidation by recombinant human MAO-B. It counts as in vitro ADME. As to conditions: 1 mg/mL, 5 μmol/L, 30 min, no cofactor.
From the text: as §1, §2, §3

Data set [7] deals with T5, UGT1A1 (Homo sapiens, UniProt P22309).
T5 construct: purchased BD Gentest (Woburn, MA); host or cells: baculovirus-infected insect cells
Put plainly: Glucuronidation by recombinant human UGT1A1. It counts as in vitro ADME. The settings on record: 1 mg/mL, 5 μmol/L, 30 min, UDPGA. The source says:
(§4) Recombinant human CYPs (Supersomes™; BD Gentes, Woburn, MA: CYP1A1, CYP1A2, CYP2A6, CYP2B6, CYP2C8, CYP2C9, CYP2C18, CYP2C19, CYP2D6, CYP2E1, CYP3A4 and CYP3A5), FMOs (Supersomes™: FMO1, FMO3, FMO5), MAOs (Supersomes™: MAO-A and MAO-B), and UGTs (Supersomes™: UGT1A1, UGT1A3, UGT1A4, UGT1A6, UGT1A7, UGT1A8, UGT1A9, UGT1A10, UGT2B4, UGT2B7, UGT2B15, and UGT2B17) expressed in baculovirus-infected insect cells and control microsomes from insect cells infected with wild-type baculovirus were all obtained from BD Gentest (Woburn, MA).
(§5) For glucuronidation pathways, the assay mixture was composed of human liver microsomes (2 mg·mL^−1) or microsomes of baculovirus-infected cells expressing human UGTs (1 mg·mL^−1), uridine 5′-diphosphoglucuronic acid (UDPGA) (3 mmol/L), 100 mmol/L Tris HCl (pH 7.4) containing 5 mmol/L MgCl2 and 5 μmol/L of the investigated compound dissolved in DMSO in a final volume of 500 μL. The final concentration of DMSO in the reaction mixture was less than 1% (v/v). […]
(§6) Figure 7 Contribution of individual UGTs to the glucuronidation of propanoic acid-dronedarone and phenol-dronedarone. […] Unchanged drugs were quantified by LC/MS-MS relative to the synthetic references as described in Materials and Methods. Data are expressed as the percentage of glucuronidation.

For data set [8], the target named is T6, CYP2C19 (Homo sapiens, UniProt P33261).
T6 construct: purchased BD Gentest (Woburn, MA); host or cells: baculovirus-infected insect cells
Put plainly: Oxidation by recombinant human CYP2C19. It counts as in vitro ADME. The settings on record: 100 pmol/mL, 5 μmol/L, 30 min, NADPH.
From the text: as §1, §2, §3

Data set [9] addresses T7, UGT2B15 (Homo sapiens, UniProt P54855).
T7 construct: purchased BD Gentest (Woburn, MA); host or cells: baculovirus-infected insect cells
The data set is described as follows: Glucuronidation by recombinant human UGT2B15. It counts as in vitro ADME. As to conditions: 1 mg/mL, 5 μmol/L, 30 min, UDPGA.
From the text: as §4, §5, §6

Data set [10] has as its target T8, UGT1A3 (Homo sapiens, UniProt P35503).
T8 construct: purchased BD Gentest (Woburn, MA); host or cells: baculovirus-infected insect cells
The data set is described as follows: Glucuronidation by recombinant human UGT1A3. Format: in vitro ADME. The settings on record: 1 mg/mL, 5 μmol/L, 30 min, UDPGA.
From the text: as §4, §5, §6

T6 sequence (P33261 whole entry): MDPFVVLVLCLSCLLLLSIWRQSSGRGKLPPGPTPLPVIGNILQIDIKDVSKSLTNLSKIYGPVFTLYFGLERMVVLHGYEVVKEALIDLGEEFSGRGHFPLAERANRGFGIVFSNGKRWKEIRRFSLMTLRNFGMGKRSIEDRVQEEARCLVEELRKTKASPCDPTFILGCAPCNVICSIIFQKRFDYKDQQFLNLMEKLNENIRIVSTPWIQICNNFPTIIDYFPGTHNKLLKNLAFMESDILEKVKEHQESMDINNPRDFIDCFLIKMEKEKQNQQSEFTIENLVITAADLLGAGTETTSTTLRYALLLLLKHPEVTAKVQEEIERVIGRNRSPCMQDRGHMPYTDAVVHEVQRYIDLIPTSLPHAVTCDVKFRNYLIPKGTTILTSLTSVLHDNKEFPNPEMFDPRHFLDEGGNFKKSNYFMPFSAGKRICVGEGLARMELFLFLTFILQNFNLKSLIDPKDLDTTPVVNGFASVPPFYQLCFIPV
T1 sequence (P10632 whole entry): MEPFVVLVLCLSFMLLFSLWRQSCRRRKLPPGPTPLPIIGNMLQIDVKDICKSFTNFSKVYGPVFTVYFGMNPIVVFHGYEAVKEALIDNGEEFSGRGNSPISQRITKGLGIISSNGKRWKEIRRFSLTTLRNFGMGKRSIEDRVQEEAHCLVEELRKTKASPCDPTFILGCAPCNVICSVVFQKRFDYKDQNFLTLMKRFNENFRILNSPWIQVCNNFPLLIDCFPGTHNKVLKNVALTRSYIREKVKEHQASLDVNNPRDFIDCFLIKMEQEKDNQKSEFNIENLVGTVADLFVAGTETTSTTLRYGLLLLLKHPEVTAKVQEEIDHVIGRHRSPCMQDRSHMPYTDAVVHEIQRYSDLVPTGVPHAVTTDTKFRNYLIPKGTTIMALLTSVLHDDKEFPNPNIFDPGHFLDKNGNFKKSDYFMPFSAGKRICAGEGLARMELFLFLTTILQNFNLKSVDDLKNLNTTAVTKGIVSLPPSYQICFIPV
T3 sequence (P21397 whole entry): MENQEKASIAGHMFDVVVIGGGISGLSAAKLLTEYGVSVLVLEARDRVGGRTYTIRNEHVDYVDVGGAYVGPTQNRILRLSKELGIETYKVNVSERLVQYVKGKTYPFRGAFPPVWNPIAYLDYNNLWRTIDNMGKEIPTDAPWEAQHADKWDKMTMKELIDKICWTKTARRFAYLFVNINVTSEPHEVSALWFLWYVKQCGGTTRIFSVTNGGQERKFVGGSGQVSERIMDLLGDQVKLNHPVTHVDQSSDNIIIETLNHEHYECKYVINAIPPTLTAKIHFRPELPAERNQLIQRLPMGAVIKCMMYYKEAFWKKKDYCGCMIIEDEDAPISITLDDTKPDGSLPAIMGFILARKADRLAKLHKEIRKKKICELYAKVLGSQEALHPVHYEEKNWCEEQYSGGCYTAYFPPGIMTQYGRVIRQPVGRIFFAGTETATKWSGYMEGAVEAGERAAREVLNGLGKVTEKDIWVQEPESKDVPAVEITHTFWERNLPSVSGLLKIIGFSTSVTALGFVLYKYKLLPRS
T7 sequence (P54855 24-530): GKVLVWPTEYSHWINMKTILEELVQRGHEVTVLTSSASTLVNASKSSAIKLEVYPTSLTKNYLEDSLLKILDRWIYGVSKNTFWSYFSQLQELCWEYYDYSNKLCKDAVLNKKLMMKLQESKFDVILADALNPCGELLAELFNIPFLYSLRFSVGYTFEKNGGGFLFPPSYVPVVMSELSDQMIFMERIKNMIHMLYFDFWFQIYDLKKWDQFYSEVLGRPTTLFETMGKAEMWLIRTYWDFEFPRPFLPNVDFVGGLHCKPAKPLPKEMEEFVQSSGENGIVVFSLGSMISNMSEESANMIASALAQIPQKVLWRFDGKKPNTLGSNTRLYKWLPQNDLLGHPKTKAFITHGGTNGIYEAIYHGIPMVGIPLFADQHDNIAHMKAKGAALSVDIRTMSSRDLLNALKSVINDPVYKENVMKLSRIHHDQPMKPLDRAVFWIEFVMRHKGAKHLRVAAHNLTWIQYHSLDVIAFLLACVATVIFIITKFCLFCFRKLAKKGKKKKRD
T5 sequence (P22309 26-533): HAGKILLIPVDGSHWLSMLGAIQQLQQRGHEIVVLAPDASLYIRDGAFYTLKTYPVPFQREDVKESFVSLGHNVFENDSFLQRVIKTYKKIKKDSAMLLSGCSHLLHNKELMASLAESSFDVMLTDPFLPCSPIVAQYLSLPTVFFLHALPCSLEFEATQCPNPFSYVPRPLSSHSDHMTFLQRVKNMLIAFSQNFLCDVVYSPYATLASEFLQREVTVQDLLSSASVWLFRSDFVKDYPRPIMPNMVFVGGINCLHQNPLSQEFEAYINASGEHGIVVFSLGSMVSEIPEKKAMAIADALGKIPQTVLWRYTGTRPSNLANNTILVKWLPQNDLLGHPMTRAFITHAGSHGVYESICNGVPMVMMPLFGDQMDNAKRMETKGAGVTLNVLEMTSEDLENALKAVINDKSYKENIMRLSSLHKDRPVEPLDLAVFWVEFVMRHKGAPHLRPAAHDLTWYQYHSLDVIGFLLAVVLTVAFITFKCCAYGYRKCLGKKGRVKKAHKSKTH
T8 sequence (P35503 29-534): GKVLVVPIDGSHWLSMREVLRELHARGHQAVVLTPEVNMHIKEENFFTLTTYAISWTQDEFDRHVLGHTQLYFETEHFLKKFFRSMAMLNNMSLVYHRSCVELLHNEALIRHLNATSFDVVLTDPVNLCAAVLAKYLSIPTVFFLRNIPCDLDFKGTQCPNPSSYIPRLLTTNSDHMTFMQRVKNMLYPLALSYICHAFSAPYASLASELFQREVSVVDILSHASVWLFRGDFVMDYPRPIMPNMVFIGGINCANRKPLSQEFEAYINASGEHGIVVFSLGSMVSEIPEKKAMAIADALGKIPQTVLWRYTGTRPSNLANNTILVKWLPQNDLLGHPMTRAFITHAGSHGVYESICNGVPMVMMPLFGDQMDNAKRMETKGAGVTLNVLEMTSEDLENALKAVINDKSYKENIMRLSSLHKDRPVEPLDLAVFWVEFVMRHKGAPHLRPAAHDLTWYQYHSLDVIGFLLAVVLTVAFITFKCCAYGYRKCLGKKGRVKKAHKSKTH
T2 sequence (P10635 whole entry): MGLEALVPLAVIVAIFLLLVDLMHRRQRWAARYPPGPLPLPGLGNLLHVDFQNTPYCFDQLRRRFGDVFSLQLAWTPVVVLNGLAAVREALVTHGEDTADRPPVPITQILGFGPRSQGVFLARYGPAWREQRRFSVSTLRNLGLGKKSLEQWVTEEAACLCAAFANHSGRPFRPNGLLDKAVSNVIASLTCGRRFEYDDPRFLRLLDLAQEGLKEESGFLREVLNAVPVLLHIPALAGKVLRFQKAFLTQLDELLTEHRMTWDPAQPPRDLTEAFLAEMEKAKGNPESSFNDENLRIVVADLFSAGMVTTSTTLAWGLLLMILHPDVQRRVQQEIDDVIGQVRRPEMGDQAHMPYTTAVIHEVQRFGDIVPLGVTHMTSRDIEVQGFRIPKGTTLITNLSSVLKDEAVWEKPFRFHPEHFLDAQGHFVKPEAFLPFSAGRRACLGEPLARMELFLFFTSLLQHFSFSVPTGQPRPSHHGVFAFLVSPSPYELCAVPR
T4 sequence (P27338 whole entry): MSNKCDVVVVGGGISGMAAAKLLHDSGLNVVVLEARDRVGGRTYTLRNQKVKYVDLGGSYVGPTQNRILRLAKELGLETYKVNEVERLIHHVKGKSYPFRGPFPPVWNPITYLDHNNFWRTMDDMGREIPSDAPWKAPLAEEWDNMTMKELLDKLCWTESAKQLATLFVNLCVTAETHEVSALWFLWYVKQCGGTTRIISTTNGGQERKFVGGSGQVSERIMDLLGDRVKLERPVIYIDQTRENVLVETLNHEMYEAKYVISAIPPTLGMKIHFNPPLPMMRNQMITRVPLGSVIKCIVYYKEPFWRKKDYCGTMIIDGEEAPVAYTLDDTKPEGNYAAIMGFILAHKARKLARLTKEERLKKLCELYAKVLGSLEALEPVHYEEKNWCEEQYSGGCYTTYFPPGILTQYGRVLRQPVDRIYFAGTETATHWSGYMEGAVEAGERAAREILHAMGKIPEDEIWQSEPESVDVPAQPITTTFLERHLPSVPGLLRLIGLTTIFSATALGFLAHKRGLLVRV

Take `CCCCc1oc2ccc(NS(C)(=O)=O)cc2c1C(=O)c1ccc(OCCC(=O)O)cc1` [Propanoic acid-dronedarone]: in data set [1], the “Percentage of oxidation (unchanged drug disappearance) by CYP2C8” value came to 28%.

Turning to `CCCCc1oc2ccc(NS(C)(=O)=O)cc2c1C(=O)c1ccc(OCCCN(CCCC)CCCC)cc1.Cl` [Dronedarone, N-(2-Butyl-3-(4-(3-(dibutylamino)propoxy)benzoyl)-5-benzofuranyl)methanesulfonamide, hydrochloride], in data set [2], the “Incidence of any QTc interval >500 msec” value is recorded as 7.7% and the PR interval increase was 13.4 ms. The Ki in [3] is […]. In addition, the inhibition constant Ki in [4] was 5 µM.

On to `CCCCNCCCOc1ccc(C(=O)c2c(CCCC)oc3ccc(NS(C)(=O)=O)cc23)cc1` [N-debutyl-dronedarone], for which the “Percentage of oxidation (unchanged drug disappearance) by MAO-A” value in data set [5] is 98%. Moreover, the “Metabolism by MAO-B” value in data set [6] is on record as “no metabolism occurred”.

Take `CCCCc1oc2ccc(NS(C)(=O)=O)cc2c1C(=O)c1ccc(O)cc1` [Phenol-dronedarone]: the “Glucuronosyl transferase activity of UGT1A1” value in [7] was “significant glucuronosyl transferase activity”. Also, in [8], the “Percentage of oxidation (unchanged drug disappearance) by CYP2C19” value came to 52%. Further, the “Glucuronosyl transferase activity of UGT2B15” value in data set [9] was “significant glucuronosyl transferase activity”. The “Glucuronosyl transferase activity of UGT1A3” value in data set [10] is given as “significant glucuronosyl transferase activity”.
